The results in this text go back to patent US10294269B2, “Dipeptidyl ketoamide compounds and their use for the treatment and/or prevention of fat accumulation” (LANDSTEINER GENMED, S.L., priority 2014, dated 2019).

For orientation: inhibition means the relative decrease from the control value, in per cent.

The subject of this experiment is 3T3-L1 pre-adipocyte cell line. The experiment can be described thus: Mouse 3T3-L1 pre-adipocyte cells differentiation assay (Nile Red lipid fluorescence). It counts as cell-based. The note with it: Mus musculus, 48 h; % of adipogenesis inhibition; compound at 25 μM in differentiation medium (2 days) and insulin medium (2 days); 3T3-L1 cells; read-out: Adipogenesis inhibition score. How it is done: Mouse 3T3-L1 Pre-Adipocyte Cells Differentiation Assay
Cell Culture and Treatment
Mouse (Mus musculus) 3T3-L1 pre-adipocyte cell line was purchased at ATCC.
Induction of adipocyte differentiation was performed according to Choi K C et al “The role of ghrelin and growth hormone secretagogues receptor on rat adipogenesis” Endocrinol 144: 754-759, 2003 with some modifications.
Briefly, 3T3-L1 pre-adipocytes were seeded in 24 well culture plates at a density of 3×10^4 cells/well in growth medium (DMEM containing 4.5 g/L glucose, 1 mM sodium pyruvate, 2 mM L-glutamine, 100 μg/mL streptomycin/penicilline, 25 mM HEPES and 10% calf serum (heat inactivated)). The resulting solution is used as a blank in the measure of fluorescence described below.
Cells were incubated at 37° C., 95% humidity and 10% CO2. Two days after reaching confluence (ninth day) growth medium was changed to differentiation medium (DMEM containing 4.5 g/L glucose, 2 mM L-glutamine, 100 μg/mL streptomycin/penicilline, 25 mM HEPES, 10% FBS (heat inactivated), 1 mM sodium pyruvate, 0.5 mM 3-isobutyl-1-methylxanthine, 0.25 μM dexamethasone, and 5 μg/mL insulin). After 48 h, the medium was replaced by insulin medium (DMEM containing 4.5 g/L glucose, 1 mM sodium pyruvate, 2 mM L-glutamine, 100 μg/mL streptomycin/penicillin, 25 mM HEPES, 10% FBS (inactivated) and 5 μg/mL insulin) for another 48 hours, and then incubated in 10% FBS/DMEM (same as insulin medium without insulin) for 4 days up to their complete differentiation.
The compounds to be tested were added at the 25 μM concentration to the differentiation medium (2 days) and to the insulin medium (2 days).
After incubation, the intracellular stored lipids were quantified by measuring the fluorescence after staining the lipids with the fluorescent dye Nile Red (9-diethylamino-5-benzo[α]phenoxazinone).
To carry out said lipid measurement, cells were lysed in hypotonic buffer (1 mM Tris-HCl pH=7.5) containing 2 μg/ml of Nile Red (9-diethylamino-5-benzo[t]phenoxazinone) for 15 min at 37° C.
Lysed cells were homogenized and TAG content was determined by monitoring Nile Red fluorescence in a laser spectral fluorometer. Excitation 522 nm; Emission 574 nm.
For each compound to be tested the following fluorescence measures were recorded: • FC: Fluorescence of a sample of lysed cells incubated in the presence of the compound in both the differentiation medium and in the insulin medium. • FB: Fluorescence of a blank sample of sample of pre-adipocytes in growth medium. • FNC: Fluorescence of a sample of lysed cells incubated with the differentiation medium and insulin medium not comprising any additional compound.
The inhibition of adipogenesis in the presence of the tested compounds is calculated from the following equation: % of adipogenesis inhibition=100−[100×((FC−FB)/(FNC−FB))]
% of adipogenesis inhibition (reflecting the activity against 3T3-L1 cell differentiation into adipocytes) was determined for each compound, and the effect at the […] has been chosen as the most representative value as to be shown in the structure-activity table.
Consider `CCNC(=O)C(=O)C(Cc1ccccc1)NC(=O)[C@H](CC(C)C)NC(=O)c1ccccc1` (stereo partly drawn) [Example 1, N-((2S)-1-((4-(ethylamino)-3,4-dioxo-1-phenylbutan-2-yl)amino)-4-methyl-1-oxopentan-2-yl)benzamide], for which the inhibition at 25 µM fell in the range of 15 to 30%.
On to `CCNC(=O)C(=O)C(Cc1ccccc1)NC(=O)[C@H](CC(C)C)NC(=O)c1ccccn1` (stereo partly drawn) [Example 4, N-((2S)-1-((4-(ethylamino)-3,4-dioxo-1-phenylbutan-2-yl)amino)-4-methyl-1-oxopentan-2-yl)picolinamide], for which the inhibition at 25 µM lay in the range of 1 to 15%.
Regarding `CCNC(=O)C(=O)C(Cc1ccccc1)NC(=O)[C@H](CC(C)C)NC(=O)c1cncnc1` (stereo partly drawn) [Example 6, N-((2S)-1-((4-(ethylamino)-3,4-dioxo-1-phenylbutan-2-yl)amino)-4-methyl-1-oxopentan-2-yl)pyrimidine-5-carboxamide], the inhibition at 25 µM was 15 to 30%.
To `COc1cccc(C(=O)N[C@@H](CC(C)C)C(=O)NC(Cc2ccccc2)C(=O)C(=O)NC(C)(C)C)c1` (stereo partly drawn) [Example 7, N-((2S)-1-((4-(tert-butylamino)-3,4-dioxo-1-phenylbutan-2-yl)amino)-4-methyl-1-oxopentan-2-yl)-3-methoxybenzamide] belongs 15 to 30%; to `CC(C)C[C@H](NC(=O)c1cncnc1)C(=O)NC(Cc1ccccc1)C(=O)C(=O)NC(C)(C)C` (stereo partly drawn) [Example 8, N-((2S)-1-((4-(tert-butylamino)-3,4-dioxo-1-phenylbutan-2-yl)amino)-4-methyl-1-oxopentan-2-yl)pyrimidine-5-carboxamide], 1 to 15%; to `CC(C)C[C@H](NC(=O)c1cccc2cnccc12)C(=O)NC(Cc1ccccc1)C(=O)C(=O)NC(C)(C)C` (stereo partly drawn) [Example 11, N-((2S)-1-((4-(tert-butylamino)-3,4-dioxo-1-phenylbutan-2-yl)amino)-4-methyl-1-oxopentan-2-yl)isoquinoline-5-carboxamide], 30 to 80%.
On to `CC(C)C[C@H](NC(=O)c1cnccn1)C(=O)NC(Cc1ccccc1)C(=O)C(=O)NC(C)(C)C` (stereo partly drawn) [Example 15, N-((2S)-1-((4-(tert-butylamino)-3,4-dioxo-1-phenylbutan-2-yl)amino)-4-methyl-1-oxopentan-2-yl)pyrazine-2-carboxamide], for which the inhibition at 25 µM was in the range of 1 to 15%.
To `CC(C)C[C@H](NC(=O)c1ccccc1)C(=O)NC(Cc1ccccc1)C(=O)C(=O)NC(C)(C)C` (stereo partly drawn) [Example 18, N-((2S)-1-((4-(tert-butylamino)-3,4-dioxo-1-phenylbutan-2-yl)amino)-4-methyl-1-oxopentan-2-yl)benzamide] belongs 15 to 30%; to `CC(C)C[C@H](NC(=O)c1ccccc1)C(=O)NC(Cc1ccccc1)C(=O)C(=O)NC1CC1` (stereo partly drawn) [Example 20, N-((2S)-1-((4-(cyclopropylamino)-3,4-dioxo-1-phenylbutan-2-yl)amino)-4-methyl-1-oxopentan-2-yl)benzamide], 30 to 80%; to `CC(C)C[C@H](NC(=O)c1cccnc1)C(=O)NC(Cc1ccccc1)C(=O)C(=O)NC(C)(C)C` (stereo partly drawn) [Example 21, N-((2S)-1-((4-(tert-butylamino)-3,4-dioxo-1-phenylbutan-2-yl)amino)-4-methyl-1-oxopentan-2-yl)nicotinamide], 1 to 15%.
For `Cc1ccc(C(=O)N[C@@H](CC(C)C)C(=O)NC(Cc2ccccc2)C(=O)C(=O)NC(C)(C)C)cn1` (stereo partly drawn) [Example 25, N-((2S)-1-((4-(tert-butylamino)-3,4-dioxo-1-phenylbutan-2-yl)amino)-4-methyl-1-oxopentan-2-yl)-6-methylnicotinamide], the inhibition at 25 µM lay within 30 to 80%.
`CC(C)C[C@H](NC(=O)c1cncc(F)c1)C(=O)NC(Cc1ccccc1)C(=O)C(=O)NC(C)(C)C` (stereo partly drawn) [Example 31, N-((2S)-1-(4-(tert-butylamino)-3,4-dioxo-1-phenylbutan-2-ylamino)-4-methyl-1-oxopentan-2-yl)-5-fluoronicotinamide]: the inhibition at 25 µM lay in the range of 1 to 15%.
For the compound `CC(C)C[C@H](NC(=O)c1ccc(C(F)(F)F)nc1)C(=O)NC(Cc1ccccc1)C(=O)C(=O)NC(C)(C)C` (stereo partly drawn) [Example 32, N-((2S)-1-(4-(tert-butylamino)-3,4-dioxo-1-phenylbutan-2-ylamino)-4-methyl-1-oxopentan-2-yl)-6-(trifluoromethyl)nicotinamide], the inhibition at 25 µM was 30 to 80%.
To `CC(C)C[C@H](NC(=O)c1cnc2ccccc2c1)C(=O)NC(Cc1ccccc1)C(=O)C(=O)NC(C)(C)C` (stereo partly drawn) [Example 54, Quinoline-3-carboxylic acid [(1S)-1-(1-benzyl-2-tert-butylcarbamoyl-2-oxo-ethylcarbamoyl)-3-methyl-butyl]-amide] belongs 30 to 80%; to `CC(C)C[C@H](NC(=O)c1cccnn1)C(=O)NC(Cc1ccccc1)C(=O)C(=O)NC(C)(C)C` (stereo partly drawn) [Example 55, Pyridazine-3-carboxylic acid [(1S)-1-(1-benzyl-2-tert-butylcarbamoyl-2-oxo-ethylcarbamoyl)-3-methyl-butyl]-amide], 15 to 30%; to `Cc1ccccc1C(=O)N[C@@H](CC(C)C)C(=O)NC(Cc1ccccc1)C(=O)C(=O)NC(C)(C)C` (stereo partly drawn) [Example 56, N-[(1S)-1-(1-benzyl-2-tert-butylcarbamoyl-2-oxo-ethylcarbamoyl)-3-methyl-butyl]-2-methyl-benzamide], 15 to 30%.
For the compound `CC(C)C[C@H](NC(=O)C1CCOCC1)C(=O)NC(Cc1ccccc1)C(=O)C(=O)NC(C)(C)C` (stereo partly drawn) [Example 57, Tetrahydro-pyran-4-carboxylic acid [(1S)-1-(1-benzyl-2-tert-butylcarbamoyl-2-oxo-ethylcarbamoyl)-3-methyl-butyl]-amide], the inhibition at 25 µM lay in the range of 15 to 30%.
As for `CC(C)C[C@H](NC(=O)c1ccccc1)C(=O)NC(Cc1ccccc1)C(=O)C(=O)NC1CCCCC1` (stereo partly drawn) [Example 58, N-[(1S)-1-(1-benzyl-2-cyclohexylcarbamoyl-2-oxo-ethylcarbamoyl)-3-methyl-butyl]-benzamide], the figure is 30 to 80%; as for `CC(C)C[C@H](NC(=O)c1ccccc1)C(=O)NC(Cc1ccccc1)C(=O)C(=O)NCc1ccccc1` (stereo partly drawn) [Example 59, N-[(1S)-1-(1-benzyl-2-benzylcarbamoyl-2-oxo-ethylcarbamoyl)-3-methyl-butyl]-benzamide], 30 to 80%; as for `CC(C)C[C@H](NC(=O)c1cnccc1Cl)C(=O)NC(Cc1ccccc1)C(=O)C(=O)NC(C)(C)C` (stereo partly drawn) [Example 60, N-[(1S)-1-(1-benzyl-2-tert-butylcarbamoyl-2-oxo-ethylcarbamoyl)-3-methyl-butyl]-4-chloro-nicotinamide], 30 to 80%.
Take `CONC(=O)C(=O)C(Cc1ccccc1)NC(=O)[C@H](CC(C)C)NC(=O)c1cccc(OC)c1` (stereo partly drawn) [Example 61, N-[(1S)-1-(1-benzyl-2-methoxycarbamoyl-2-oxo-ethylcarbamoyl)-3-methyl-butyl]-3-methoxy-benzamide]: the inhibition at 25 µM lay within 30 to 80%.
As to `CONC(=O)C(=O)C(Cc1ccccc1)NC(=O)[C@H](CC(C)C)NC(=O)c1ccc2c(c1)OCO2` (stereo partly drawn) [Example 62, Benzo[1,3]dioxole-5-carboxylic acid [(1S)-1-(1-benzyl-2-methoxycarbamoyl-2-oxo-ethylcarbamoyl)-3-methyl-butyl]-amide], the inhibition at 25 µM is 30 to 80%.
